Experiments:
X/β5 = biological target: T1, X/β5 (Homo sapiens, UniProt P20618+P28074); test: Proteasome activity assay, purified 20S proteasome, Ac-WLA-AMC; type: biochemical
T1 construct: purchased R&D Systems
Description: Purified 20S human proteasomes (CP and IP, R&D Systems) were used to assess the in vitro inhibition of proteasome catalytic activity by LMP2 inhibitors. In our 96-well format assays involving a 100 μL total volume, 20S proteasomes (0.5 μg/mL) were incubated with inhibitors or reference compounds (e.g., carfilzomib) in assay buffer (20 mM Tris-HCl, 0.5 mM EDTA, 0.035% SDS) at room temperature for 30 min. Reactions were initiated by the addition of fluorogenic substrates containing the AMC (7-amino-4-methylcoumarin) group. Specifically, the following substrates were used: Suc-LLVY-AMC (CT-L activity, 100 μM), Ac-PAL-AMC (LMP2, 100 μM), Ac-WLA-AMC (β5, 20 μM), Ac-nLPnLD-AMC (β1,100 μM), Ac-RLR-AMC (β2/2i, 20 μM), and Ac-ANW-AMC (β5i, 100 μM). The fluorescence of liberated AMC was measured over a period of 90 min at 360 and 460 nm on a SpectraMax M5 fluorescence plate reader (Molecular Devices). For the proteasome activity of brain tissues isolated from AD mice, tissues were homogenized in RIPA buffer (50 mM Tris Cl, pH 7.4, 150 mM NaCl, 5 mM EDTA, 1% Nonidet P-40, 1% sodium deoxycholate, 0.1% SDS, 1% aprotinin, 50 mM NaF) and sonicated. Samples were centrifuged for 40 min at 14,000×g (4° C.). Protein concentration was determined using the Bradford Assay according to the manufacturer's protocol. […] Fluorescence was recorded for 90 min using a Synergy-HT (Bio Tek) plate reader.

LMP7/β5i = biological target: T2, LMP7/β5i (Homo sapiens, UniProt P20618+P28062); test: Proteasome activity assay, purified 20S proteasome, Ac-ANW-AMC; type: biochemical
T2 construct: purchased R&D Systems
Description: Purified 20S human proteasomes (CP and IP, R&D Systems) were used to assess the in vitro inhibition of proteasome catalytic activity by LMP2 inhibitors. […] Reactions were initiated by the addition of fluorogenic substrates containing the AMC (7-amino-4-methylcoumarin) group. Specifically, the following substrates were used: Suc-LLVY-AMC (CT-L activity, 100 μM), Ac-PAL-AMC (LMP2, 100 μM), Ac-WLA-AMC (β5, 20 μM), Ac-nLPnLD-AMC (β1,100 μM), Ac-RLR-AMC (β2/2i, 20 μM), and Ac-ANW-AMC (β5i, 100 μM). The fluorescence of liberated AMC was measured over a period of 90 min at 360 and 460 nm on a SpectraMax M5 fluorescence plate reader (Molecular Devices). For the proteasome activity of brain tissues isolated from AD mice, tissues were homogenized in RIPA buffer (50 mM Tris Cl, pH 7.4, 150 mM NaCl, 5 mM EDTA, 1% Nonidet P-40, 1% sodium deoxycholate, 0.1% SDS, 1% aprotinin, 50 mM NaF) and sonicated. Samples were centrifuged for 40 min at 14,000×g (4° C.). Protein concentration was determined using the Bradford Assay according to the manufacturer's protocol. Finally, samples were loaded onto a 96-well plate followed by the addition of the substrate (Ac-PAL-AMC) at 37° C. Fluorescence was recorded for 90 min using a Synergy-HT (Bio Tek) plate reader.

[1] = test system: neuronal tissues from the brains of APPsw mice; test: Cresyl violet staining of neuronal tissues; type: in vivo; conditions: APPsw mouse model, FIG. 10
Text: Since LMP2 inhibitors had no effects on Aβ or tau aggregation, we wondered if these compounds are simply protecting neurons from cell death caused by Aβ or LPS. To examine this, we performed Cresyl violet staining experiments on neuronal tissues isolated from the brains of APPsw mice.
Frozen brain tissues were cut into 30 μm sections by using cryostat microtome (Leica CM1850; Leica Microsystems, Korea). The pieces of brain were thoroughly washed with PBS to remove the excess fixative agent, and then transferred to gelatin coated slices and stained with 0.1% Cresyl violet (2-5 minutes) to identify cortical layers and cytoarchitectural features of isocortical region. Next, the sections were washed with distill water and dehydrated by using ascending grades of ethanol (50%, 70%, 90%, and 100%) for 2 min in each grade followed by a 1-min immersion in a 1:1 mixture of absolute alcohol and xylene. The sections were then rinsed with xylene for 5-10 min and mounted with mounting medium (CYTOSEAL™ XYL; Thermo Scientific, USA). The tissue was photographed (100×) in the same areas.

[2] = test system: Aβ deposition in APPsw mouse brain; test: Aβ in hippocampal tissues by ELISA and Thioflavin T staining; type: in vivo; conditions: versus APPsw control, FIG. 9
Text: Given the data showing improved learning and memory of LMP2 inhibitor-treated mice and the role of Aβ deposition in memory dysfunction, we suspected that LMP2 inhibitors promote Aβ clearance in the brain of APPsw mice. To test this, we measured the expression levels of Aβ in hippocampal tissues isolated from the brains of APPsw mouse, using a ELISA-based assay and Thioflavin T (ThT) staining. […] Taken together, it appears that LMP2 inhibitors exert its anti-AD efficacy in these animal models independent of Aβ deposition. […] As a result, tau protein has become a prominent target for developing disease-modifying drugs. Given this, we wondered whether LMP2 inhibitors could block tau aggregation. To test this, we used HEK293-tau-BiFC cells to monitor the impacts of LMP2 inhibitors on tau aggregation.
Aβ1-42 levels were determined using specific ELISA Kit (Cusabio Biotech Co., Ltd., Wilmington, Del., USA). Experiments were performed according to each manufacturer's instructions. In brief, samples and standards were added into the pre-coated plate and incubated for 2 hours at 37° C. […] The absorbance was measured at 450 nm using a microplate reader (Sunrise™, TECAN, Switzerland) after adding stop solution.
Frozen brain tissues were cut into 30 μm sections by using cryostat microtome (Leica CM1850; Leica Microsystems). […] The Thioflavin T staining was examined by using a fluorescence microscope.

In the case of `CC(=O)NCC(=O)N1CCC[C@H]1C(=O)N[C@@H](Cc1ccccc1)C(=O)N[C@@H](CC(C)C)C(=O)[C@@]1(C)CO1` [YU102], the IC50 (X/β5) is reported as over 10 µM, the IC50 (LMP7/β5i) is reported as over 10 µM and the neuroprotective effects [1] is reported as “no neuroprotective effects”. The Aβ deposition [2] was “no difference in Aβ deposition”.

Reference: US20190161516A1, “PROTEASOME INHIBITORS” (University of Kentucky Research Foundation, priority 2017, published 2019)
